Experimental data taken from patent US20090270350A1, “Pyridinone Pyrazole Urea and Pyrimidinone Pyrazole Urea Derivatives” (PFIZER INC., priority 2006, published 2009).
Where two headings read alike, the source gives them in different places.

Target: p38α (Homo sapiens, UniProt Q16539)
Experiment: p38α/MK2 cascade assay
Type: biochemical
Settings: read-out: p38a/MK2 Cascade 40 min Pre-Incuabtion (% Inhibition): IC50
How it was run: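 In a cascade format, p38α was preincubated 40 min with inhibitor (1000–0.05 nM) before adding 1 nM nonactive MK2 (54-400), 5 μM MgATP and 0.5 μM FITC-Hsp27 peptide. Reaction ran 60 min in HEPES pH 7.5 with MgCl2, DTT, 2% DMSO, then EDTA-quenched. Peptide phosphorylation was measured by Caliper mobility shift to give IC50.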

[1] = Table 1, inhibitors preincubated with p38α for 40 minutes, phosphorylation of Hsp27 peptide by MK-2, Caliper LabChip 3000
[2] = Table 2, same p38α/MK2 cascade assay, 40 minutes preincubation

Sequence of p38α (Q16539 whole entry): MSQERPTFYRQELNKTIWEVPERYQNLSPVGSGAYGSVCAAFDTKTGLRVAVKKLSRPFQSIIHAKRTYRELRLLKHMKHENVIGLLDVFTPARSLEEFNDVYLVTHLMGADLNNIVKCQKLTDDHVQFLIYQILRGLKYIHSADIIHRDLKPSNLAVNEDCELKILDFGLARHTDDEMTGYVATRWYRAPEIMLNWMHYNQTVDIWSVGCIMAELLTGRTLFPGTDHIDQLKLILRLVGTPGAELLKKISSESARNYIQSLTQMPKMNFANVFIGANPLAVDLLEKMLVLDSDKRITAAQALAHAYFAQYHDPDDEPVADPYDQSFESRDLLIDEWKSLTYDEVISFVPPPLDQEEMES

Row | Structure (SMILES) | IC50 [1] | IC50 [2]
1 | COc1cccc(Cn2c(C)cc(OCc3ccccc3CNC(=O)Nc3cc(C(C)(C)C)nn3-c3cccc(OCCO)c3)c(C)c2=O)c1 [Example 48, 1-{3-tert-butyl-1-[3-(2-hydroxyethoxy)phenyl]-1H-pyrazol-5-yl}-3-[2-({[1-(3-methoxybenzyl)-3,6-dimethyl-2-oxo-1,2-dihydropyridin-4-yl]oxy}methyl)benzyl]urea] | 6.4 nM | –
2 | COc1cccc(Cn2c(C)cc(OCc3ccccc3CNC(=O)Nc3cc(C(C)(C)C)nn3-c3cccc(OC)c3)c(Cl)c2=O)c1 [Example 44, 1-[3-tert-butyl-1-(3-methoxyphenyl)-1H-pyrazol-5-yl]-3-[2-({[3-chloro-1-(3-methoxybenzyl)-6-methyl-2-oxo-1,2-dihydropyridin-4-yl]oxy}methyl)benzyl]urea] | 5.8 nM | –
3 | COc1ccc(Cn2c(C)cc(OCc3ccccc3CNC(=O)Nc3cc(C(C)(C)C)nn3-c3ccc(C)cc3)c(Br)c2=O)cc1 [Example 101, 1-[2-({[3-bromo-1-(4-methoxybenzyl)-6-methyl-2-oxo-1,2-dihydropyridin-4-yl]oxy}methyl)benzyl]-3-[3-tert-butyl-1-(4-methylphenyl)-1H-pyrazol-5-yl]urea] | 8.19 nM | –
4 | Cc1cc(OCc2ccccc2CNC(=O)Nc2cc(C(C)(C)C)nn2-c2cccc(Cl)c2)c(Br)c(=O)n1Cc1ccccc1 [Example 108, 1-(2-{[(1-benzyl-3-bromo-6-methyl-2-oxo-1,2-dihydropyridin-4-yl)oxy]methyl}benzyl)-3-[3-tert-butyl-1-(3-chlorophenyl)-1H-pyrazol-5-yl]urea] | 3.71 nM | –
5 | COC(=O)c1ccc(C)c(-n2c(C)cc(OCc3ccccc3CNC(=O)Nc3cc(C(C)(C)C)nn3-c3cccc(OCCO)c3)c(Cl)c2=O)c1 [Example 209, methyl 3-[4-{[2-({[({3-tert-butyl-1-[3-(2-hydroxyethoxy)-phenyl]-1H-pyrazol-5-yl}amino)carbonyl]-amino}methyl)-benzyl]oxy}-3-chloro-6-methyl-2-oxopyridin-1(2H)-yl]-4-methylbenzoate] | – | 3.8 nM
6 | COc1ccc(Cn2c(C)cc(OCc3ccccc3CNC(=O)Nc3cc(C(C)(C)C)nn3-c3ccc(O)cc3)cc2=O)cc1 [Example 54, 1-[3-tert-butyl-1-(4-hydroxyphenyl)-1H-pyrazol-5-yl]-3-[2-({[1-(4-methoxybenzyl)-6-methyl-2-oxo-1,2-dihydropyridin-4-yl]oxy}methyl)benzyl]urea] | 117 nM | –
7 | COc1cccc(Cn2c(C)cc(OCc3ccccc3CNC(=O)Nc3cc(C(C)(C)C)nn3-c3ccc(O)c(Cl)c3)c(Cl)c2=O)c1 [Example 215, 1-[3-tert-butyl-1-(3-chloro-4-hydroxyphenyl)-1H-pyrazol-5-yl]-3-[2-({[3-chloro-1-(3-methoxy-benzyl)-6-methyl-2-oxo-1,2-dihydropyridin-4-yl]oxy}methyl)-benzyl]urea] | – | 8 nM
8 | CCc1c(OCc2ccccc2CNC(=O)Nc2cc(C(C)(C)C)nn2-c2ccccc2)ncn(Cc2ccccc2)c1=O [Example 113, 1-(2-{[(1-benzyl-5-ethyl-6-oxo-1,6-dihydropyrimidin-4-yl)oxy]methyl}benzyl)-3-(3-tert-butyl-1-phenyl-1H-pyrazol-5-yl)urea] | 10 nM | –
9 | COC(=O)c1ccc(C)c(-n2c(C)cc(OCc3ccc(F)cc3CNC(=O)Nc3cc(C(C)(C)C)nn3-c3cccc(Cl)c3)c(Cl)c2=O)c1 [Example 182, Methyl 3-{4-[(2-{[({[3-tert-butyl-1-(3-chlorophenyl)-1H-pyrazol-5-yl]amino}carbonyl)amino]methyl}-4-fluorobenzyl)oxy]-3-chloro-6-methyl-2-oxopyridin-1(2H)-yl}-4-methylbenzoate] | 3.99 nM | –
10 | COC(=O)c1ccc(C)c(-n2c(C)cc(OCc3ccc(F)cc3CNC(=O)Nc3cc(C(C)(C)C)nn3-c3ccc(C)cc3)c(Cl)c2=O)c1 [Example 181, Methyl 3-{4-[(2-{[({[3-tert-butyl-1-(4-methylphenyl)-1H-pyrazol-5-yl]amino}carbonyl)amino]methyl}-4-fluorobenzyl)oxy]-3-chloro-6-methyl-2-oxopyridin-1(2H)-yl}-4-methylbenzoate] | 3.31 nM | –
11 | Cc1ccc(C(=O)NCCO)cc1-n1c(C)cc(OCc2ccc(F)cc2CNC(=O)Nc2cc(C(C)(C)C)nn2-c2cccc(Cl)c2)c(Cl)c1=O [Example 195, 3-{4-[(2-{[({[3-tert-butyl-1-(3-chlorophenyl)-1H-pyrazol-5-yl]amino}carbonyl)amino]methyl}-4-fluorobenzyl)oxy]-3-chloro-6-methyl-2-oxopyridin-1(2H)-yl}-N-(2-hydroxyethyl)-4-methylbenzamide] | 3.93 nM | –
12 | COc1ccc(Cn2c(C)cc(OCc3ccccc3CNC(=O)Nc3cc(C(C)(C)C)nn3-c3cccc(O)c3)cc2=O)cc1 [Example 55, 1-[3-tert-butyl-1-(3-hydroxyphenyl)-1H-pyrazol-5-yl]-3-[2-({[1-(4-methoxybenzyl)-6-methyl-2-oxo-1,2-dihydropyridin-4-yl]oxy}methyl)benzyl]urea] | 24.3 nM | –
13 | CNC(=O)c1ccc(C)c(-n2c(C)cc(OCc3ccc(F)cc3CNC(=O)Nc3cc(C(C)(C)C)nn3-c3ccc(C)cc3)c(Cl)c2=O)c1 [Example 206, 3-{4-[(2-{[({[3-tert-butyl-1-(4-methylphenyl)-1H-pyrazol-5-yl]amino}carbonyl)amino]methyl}-4-fluorobenzyl)oxy]-3-chloro-6-methyl-2-oxopyridin-1(2H)-yl}-N,4-dimethylbenzamide] | – | 3.71 nM
14 | COc1cccc(Cn2c(C)cc(OCc3ccccc3CNC(=O)Nc3cc(C(C)(C)C)nn3-c3ccc(Cl)c(O)c3)c(C)c2=O)c1 [Example 47, 1-[3-tert-butyl-1-(4-chloro-3-hydroxyphenyl)-1H-pyrazol-5-yl]-3-[2-({[1-(3-methoxybenzyl)-3,6-dimethyl-2-oxo-1,2-dihydropyridin-4-yl]oxy}methyl)benzyl]urea] | 12.2 nM | –
15 | COC(=O)c1ccc(C)c(-n2c(C)cc(OCc3ccccc3CNC(=O)Nc3cc(C(C)(C)C)nn3-c3ccc(O)cc3)c(Cl)c2=O)c1 [Example 213, methyl 3-{4-[(2-{[({[3-tert-butyl-1-(4-hydroxyphenyl)-1H-pyrazol-5-yl]amino}carbonyl)amino]methyl}benzyl)oxy]-3-chloro-6-methyl-2-oxopyridin-1(2H)-yl}-4-methylbenzoate] | – | 4 nM

The remaining lines, values ahead:

Row | IC50 [1] | IC50 [2] | Structure (SMILES)
16 | – | 10.8 nM | COc1ccc(Cn2c(C)cc(OCc3ccccc3CNC(=O)Nc3cc(C(C)(C)C)nn3-c3cccc(Cl)c3)c(Br)c2=O)c(OC)c1 [Example 242, 1-[2-({[3-bromo-1-(2,4-dimethoxybenzyl)-6-methyl-2-oxo-1,2-dihydropyridin-4-yl]oxy}methyl)benzyl]-3-[3-tert-butyl-1-(3-chlorophenyl)-1H-pyrazol-5-yl]urea]
17 | – | 1.81 nM | COCCNC(=O)c1ccc(C)c(-n2c(C)cc(OCc3ccccc3CNC(=O)Nc3cc(C(C)(C)C)nn3-c3ccc(O)cc3)c(Cl)c2=O)c1 [Example 218, 3-{4-[(2-{[({[3-tert-butyl-1-(4-hydroxyphenyl)-1H-pyrazol-5-yl]amino}carbonyl)amino]methyl}benzyl)oxy]-3-chloro-6-methyl-2-oxopyridin-1(2H)-yl}-N-(2-methoxyethyl)-4-methyl-benzamide]
18 | – | 9.54 nM | COc1ccc(Cn2c(C)cc(OCc3ccccc3CNC(=O)Nc3cc(C(C)(C)C)nn3-c3ccccc3)c(C)c2=O)c(OC)c1 [Example 243, 1-(3-tert-butyl-1-phenyl-1H-pyrazol-5-yl)-3-[2-({[1-(2,4-dimethoxybenzyl)-3,6-dimethyl-2-oxo-1,2-dihydropyridin-4-yl]oxy}methyl)benzyl]urea]
19 | – | 2.1 nM | Cc1ccc(C(=O)NCCO)cc1-n1c(C)cc(OCc2ccccc2CNC(=O)Nc2cc(C(C)(C)C)nn2-c2ccc(Cl)c(O)c2)c(Cl)c1=O [Example 228, 3-{4-[(2-{[({[3-tert-butyl-1-(4-chloro-3-hydroxyphenyl)-1H-pyrazol-5-yl]amino}carbonyl)amino]methyl}benzyl)oxy]-3-chloro-6-methyl-2-oxopyridin-1(2H)-yl}-N-(2-hydroxyethyl)-4-methylbenzamide]
20 | – | 16.2 nM | COc1ccc(Cn2c(C)cc(OCc3ccccc3CNC(=O)Nc3cc(C(C)(C)C)nn3-c3ccc(O)cc3)c(C)c2=O)cc1Cl [Example 267, 1-[3-tert-butyl-1-(4-hydroxyphenyl)-1H-pyrazol-5-yl]-3-[2-({[1-(3-chloro-4-methoxybenzyl)-3,6-dimethyl-2-oxo-1,2-dihydro-pyridin-4-yl]oxy}methyl)benzyl]urea]
21 | – | 4.7 nM | COc1ccc(Cn2c(C)cc(OCc3ccccc3CNC(=O)Nc3cc(C(C)(C)C)nn3-c3ccc(Cl)c(O)c3)c(Cl)c2=O)cc1 [Example 257, 1-[3-tert-butyl-1-(4-chloro-3-hydroxyphenyl)-1H-pyrazol-5-yl]-3-[2-({[3-chloro-1-(4-methoxybenzyl)-6-methyl-2-oxo-1,2-dihydro-pyridin-4-yl]oxy}methyl)benzyl]urea]
22 | – | 26.6 nM | COc1cc(Cn2c(C)cc(OCc3ccccc3CNC(=O)Nc3cc(C(C)(C)C)nn3-c3ccc(O)c(Cl)c3)c(Cl)c2=O)ccc1Cl [Example 254, 1-[3-tert-butyl-1-(3-chloro-4-hydroxyphenyl)-1H-pyrazol-5-yl]-3-[2-({[3-chloro-1-(4-chloro-3-methoxybenzyl)-6-methyl-2-oxo-1,2-dihydropyridin-4-yl]oxy}methyl)benzyl]urea]
23 | – | 3.2 nM | Cc1ccc(C(=O)NCCO)cc1-n1c(C)cc(OCc2ccccc2CNC(=O)Nc2cc(C(C)(C)C)nn2-c2ccc(O)c(Cl)c2)c(Cl)c1=O [Example 224, 3-{4-[(2-{[({[3-tert-butyl-1-(3-chloro-4-hydroxyphenyl)-1H-pyrazol-5-yl]amino}carbonyl)amino]methyl}benzyl)oxy]-3-chloro-6-methyl-2-oxopyridin-1(2H)-yl}-N-(2-hydroxyethyl)-4-methylbenzamide]
